Holding throughout (experiment): biochemical
Assay [1] has as its target T1, ACVR1 (Homo sapiens, UniProt Q04771).
T1 sequence (Q04771 1-509): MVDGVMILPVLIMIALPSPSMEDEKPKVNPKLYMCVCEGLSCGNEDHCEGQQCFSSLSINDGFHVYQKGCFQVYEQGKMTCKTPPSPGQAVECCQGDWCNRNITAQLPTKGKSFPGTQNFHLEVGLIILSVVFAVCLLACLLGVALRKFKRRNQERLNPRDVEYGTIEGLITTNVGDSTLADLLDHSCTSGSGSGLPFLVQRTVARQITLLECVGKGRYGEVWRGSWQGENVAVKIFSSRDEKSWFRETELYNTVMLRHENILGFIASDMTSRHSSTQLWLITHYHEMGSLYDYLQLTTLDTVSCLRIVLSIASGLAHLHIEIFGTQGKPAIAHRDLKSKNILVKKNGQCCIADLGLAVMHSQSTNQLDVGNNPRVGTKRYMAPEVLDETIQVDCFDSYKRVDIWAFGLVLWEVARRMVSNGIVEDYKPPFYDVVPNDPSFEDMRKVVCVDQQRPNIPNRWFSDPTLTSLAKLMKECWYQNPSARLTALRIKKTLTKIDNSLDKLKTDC

Assay [2] has as its target CLK1 (Homo sapiens, UniProt P49759).
Assay [3] deals with FER (Homo sapiens, UniProt P16591).
In assay [4] the target is T2, GAK (Homo sapiens, UniProt O14976).
T2 sequence (O14976 1-1311): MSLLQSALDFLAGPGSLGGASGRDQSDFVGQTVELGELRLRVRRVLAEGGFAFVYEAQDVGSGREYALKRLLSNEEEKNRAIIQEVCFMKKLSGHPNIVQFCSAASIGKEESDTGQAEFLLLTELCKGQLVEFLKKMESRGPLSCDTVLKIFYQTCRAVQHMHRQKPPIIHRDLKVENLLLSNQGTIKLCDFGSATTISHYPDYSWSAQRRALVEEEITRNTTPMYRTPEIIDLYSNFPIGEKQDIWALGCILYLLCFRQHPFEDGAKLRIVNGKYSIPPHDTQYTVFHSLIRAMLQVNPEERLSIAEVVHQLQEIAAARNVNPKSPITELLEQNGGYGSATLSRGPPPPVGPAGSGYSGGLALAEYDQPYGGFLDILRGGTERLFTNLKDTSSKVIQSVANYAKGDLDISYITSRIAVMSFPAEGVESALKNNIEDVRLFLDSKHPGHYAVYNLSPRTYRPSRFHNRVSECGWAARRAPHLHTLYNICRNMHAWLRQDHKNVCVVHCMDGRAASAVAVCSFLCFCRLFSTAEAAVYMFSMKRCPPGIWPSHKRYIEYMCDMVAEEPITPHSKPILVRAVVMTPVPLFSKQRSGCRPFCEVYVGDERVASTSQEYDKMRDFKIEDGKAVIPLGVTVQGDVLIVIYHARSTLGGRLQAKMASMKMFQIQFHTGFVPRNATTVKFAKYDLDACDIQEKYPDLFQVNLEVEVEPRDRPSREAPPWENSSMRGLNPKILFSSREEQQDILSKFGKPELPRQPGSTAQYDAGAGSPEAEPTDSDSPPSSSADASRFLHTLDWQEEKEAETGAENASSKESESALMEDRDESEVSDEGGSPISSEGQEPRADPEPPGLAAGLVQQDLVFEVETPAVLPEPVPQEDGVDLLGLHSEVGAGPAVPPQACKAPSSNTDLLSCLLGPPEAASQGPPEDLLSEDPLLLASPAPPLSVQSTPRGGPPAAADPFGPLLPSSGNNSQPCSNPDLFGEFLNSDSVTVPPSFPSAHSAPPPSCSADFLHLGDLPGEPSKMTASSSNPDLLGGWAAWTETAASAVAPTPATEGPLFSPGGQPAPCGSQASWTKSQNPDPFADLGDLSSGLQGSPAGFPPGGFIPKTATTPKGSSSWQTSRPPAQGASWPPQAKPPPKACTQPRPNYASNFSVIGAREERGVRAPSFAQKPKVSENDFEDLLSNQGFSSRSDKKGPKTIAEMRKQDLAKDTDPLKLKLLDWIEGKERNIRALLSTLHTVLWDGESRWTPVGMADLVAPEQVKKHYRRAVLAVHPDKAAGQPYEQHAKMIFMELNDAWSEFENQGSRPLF

Assay [5] addresses MAPK3 (Homo sapiens, UniProt P27361).
The target of assay [6] is SRC (Homo sapiens, UniProt P12931).
In assay [7] the target is mTOR (Homo sapiens, UniProt P42345).

Molecules are shown by their SMILES. “And” between values parts separate entries of the source, which are not always exact repeats. Equal entries are not always repeated.

3 compounds from PMC4774911, “Biochemical Screening of Five Protein Kinases from Plasmodium falciparum against 14,000 Cell-Active Compounds” (PLoS ONE, 2016) can be followed below.

SRC, sequence (P12931 whole entry): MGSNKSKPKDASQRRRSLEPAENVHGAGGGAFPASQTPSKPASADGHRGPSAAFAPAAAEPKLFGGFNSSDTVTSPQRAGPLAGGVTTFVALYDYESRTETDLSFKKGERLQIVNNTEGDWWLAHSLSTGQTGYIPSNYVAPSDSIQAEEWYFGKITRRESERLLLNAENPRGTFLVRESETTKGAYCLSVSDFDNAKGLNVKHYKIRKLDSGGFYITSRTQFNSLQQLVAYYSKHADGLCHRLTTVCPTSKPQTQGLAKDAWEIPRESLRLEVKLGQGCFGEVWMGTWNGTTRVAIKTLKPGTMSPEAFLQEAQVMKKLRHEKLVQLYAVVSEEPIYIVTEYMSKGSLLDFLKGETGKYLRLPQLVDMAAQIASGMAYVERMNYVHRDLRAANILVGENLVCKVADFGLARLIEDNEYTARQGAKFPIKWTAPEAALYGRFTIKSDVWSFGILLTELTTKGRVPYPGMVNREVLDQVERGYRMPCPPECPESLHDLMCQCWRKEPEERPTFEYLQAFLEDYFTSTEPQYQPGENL
FER, sequence (P16591 whole entry): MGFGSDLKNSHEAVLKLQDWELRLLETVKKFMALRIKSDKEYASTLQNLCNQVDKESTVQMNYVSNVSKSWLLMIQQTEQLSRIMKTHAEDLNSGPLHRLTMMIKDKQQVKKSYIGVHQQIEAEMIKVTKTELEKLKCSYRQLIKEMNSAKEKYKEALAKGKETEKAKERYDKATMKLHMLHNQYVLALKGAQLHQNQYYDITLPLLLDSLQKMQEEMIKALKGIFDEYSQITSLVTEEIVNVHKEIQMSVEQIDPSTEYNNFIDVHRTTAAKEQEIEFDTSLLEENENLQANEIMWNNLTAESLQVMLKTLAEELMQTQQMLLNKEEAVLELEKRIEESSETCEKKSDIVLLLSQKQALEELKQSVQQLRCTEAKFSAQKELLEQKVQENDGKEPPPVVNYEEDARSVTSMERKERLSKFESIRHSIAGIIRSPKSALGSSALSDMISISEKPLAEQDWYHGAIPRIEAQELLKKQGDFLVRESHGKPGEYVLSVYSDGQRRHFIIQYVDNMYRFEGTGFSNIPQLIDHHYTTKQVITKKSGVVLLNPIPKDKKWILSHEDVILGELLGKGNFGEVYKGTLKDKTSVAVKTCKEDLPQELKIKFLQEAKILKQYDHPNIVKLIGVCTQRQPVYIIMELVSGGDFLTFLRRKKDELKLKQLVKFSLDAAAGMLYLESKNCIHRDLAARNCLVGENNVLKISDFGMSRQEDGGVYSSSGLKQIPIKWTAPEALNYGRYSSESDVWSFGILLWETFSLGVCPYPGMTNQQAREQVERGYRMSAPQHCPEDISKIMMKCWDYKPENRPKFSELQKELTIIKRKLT
CLK1, sequence (P49759 whole entry): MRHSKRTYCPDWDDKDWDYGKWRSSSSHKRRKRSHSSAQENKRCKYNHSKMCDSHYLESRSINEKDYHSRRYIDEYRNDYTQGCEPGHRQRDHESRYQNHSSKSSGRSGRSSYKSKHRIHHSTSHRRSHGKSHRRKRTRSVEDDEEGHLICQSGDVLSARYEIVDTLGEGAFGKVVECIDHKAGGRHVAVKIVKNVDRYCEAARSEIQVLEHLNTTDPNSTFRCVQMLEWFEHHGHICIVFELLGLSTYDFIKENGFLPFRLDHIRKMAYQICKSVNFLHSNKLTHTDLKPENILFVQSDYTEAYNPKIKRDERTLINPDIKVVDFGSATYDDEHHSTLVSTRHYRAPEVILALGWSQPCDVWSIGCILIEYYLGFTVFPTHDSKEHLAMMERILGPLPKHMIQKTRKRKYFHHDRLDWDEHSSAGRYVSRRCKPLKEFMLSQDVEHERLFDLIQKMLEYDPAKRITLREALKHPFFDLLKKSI
MAPK3, sequence (P27361 whole entry): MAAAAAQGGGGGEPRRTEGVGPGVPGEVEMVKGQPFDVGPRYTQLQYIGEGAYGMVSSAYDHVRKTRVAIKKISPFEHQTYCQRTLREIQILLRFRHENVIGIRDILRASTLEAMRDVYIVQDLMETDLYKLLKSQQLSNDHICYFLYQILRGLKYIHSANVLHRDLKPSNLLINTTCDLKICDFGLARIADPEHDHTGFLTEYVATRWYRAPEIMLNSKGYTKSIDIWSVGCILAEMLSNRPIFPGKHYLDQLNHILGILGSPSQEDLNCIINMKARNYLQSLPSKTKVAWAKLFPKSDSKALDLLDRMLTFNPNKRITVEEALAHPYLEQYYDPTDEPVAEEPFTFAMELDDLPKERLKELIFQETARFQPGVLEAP

One may read the IC50 as the concentration that inhibits the measured activity by half. The low end stands for inhibition by little substance, the high end for a need for much substance. `CN1CCN(c2ccc(Nc3ncc(C#N)c(Nc4ccccc4C(N)=O)n3)cc2)CC1.Cl` [TCMDC-134116]: the half-maximal inhibitory concentration (IC50) is 8200 nM in assay [1]; 47 nM and 48 nM in assay [2]; 220 nM and 210 nM in assay [3]; 82 nM and 100 nM in assay [4]; greater than 20000 nM in assay [5]; 480 nM and 410 nM in assay [6]. The compound also registered an IC50 in assay [7] greater than 20000 nM.
On to `Cl.NCC1(c2nc(-c3ccc(Cl)c(O)c3)c(-c3ccncc3)[nH]2)CCCCC1` [TCMDC-141154], for which the half-maximal inhibitory concentration (IC50) in assay [1] is greater than 20000 nM; in assay [2], greater than 20000 nM; in assay [3] it was greater than 20000 nM; in assay [4], greater than 20000 nM; in assay [5] it was greater than 20000 nM; in assay [6], 290 nM. For the same compound, in assay [7], the IC50 was greater than 20000 nM.
With `CN(C)CC(O)COc1ccc(Nc2ncc([N+](=O)[O-])c(Nc3ccccc3O)n2)cc1.O=C(O)C(F)(F)F` (stereo not drawn) [TCMDC-141399], the IC50 in assay [1] was greater than 20000 nM; in assay [2] it was 390 nM and 270 nM; in assay [3], 930 nM and 810 nM; in assay [4] it was 1500 nM and 2300 nM; in assay [5], greater than 20000 nM; in assay [6], greater than 20000 nM. Moreover, the IC50 in assay [7] was greater than 20000 nM.
